Source: ChEMBL document CHEMBL5537202, “Perspectives on Nuclear Magnetic Resonance Spectroscopy in Drug Discovery Research” (J Med Chem, 2024)
Where a SMILES comes first, the peptide text is derived from it. Bridges are numbered along the chain shown (N, C = ends). [ ]: non-standard residue; d: D form. Trp(1-CH2COOH) = N[C@@H](Cc1cn(CC(=O)O)c2ccccc12)C(=O)O; Hyp = O=C(O)[C@@H]1C[C@@H](O)CN1; NMeNle = CCCC[C@H](NC)C(=O)O; NMeA = CN[C@@H](C)C(=O)O; Dab = NCC[C@H](N)C(=O)O; Dap = NC[C@H](N)C(=O)O; Sar = CNCC(=O)O

Tests used:
[1] = biological target: Stimulator of interferon genes protein (Homo sapiens, UniProt Q86WV6); test: Binding affinity to N-terminal His-tagged wild type human STING CTD ([…]) expressed in Escherichia coli BL21 (DE3) cells assessed as dissociation constant by NMR analysis
[2] = Binding affinity to human recombinant Hsp90 expressed in Escherichia coli BL21 (DE3) cells assessed as dissociation constant
[3] = Binding affinity to human Hsp90 expressed in Escherichia coli BL21 (DE3) cells assessed as inhibition constant
[4] = biological target: T1, Programmed cell death protein 1/Programmed cell death 1 ligand 1 (Homo sapiens, UniProt Q15116+Q9NZQ7); test: Inhibition of PD-1/PD-L1 (unknown origin) protein-protein interaction incubated for 1 hr by HTRF assay; type: protein-complex assay
[5] = biological target: T1, Programmed cell death protein 1/Programmed cell death 1 ligand 1; test: Inhibition of PD-1/PD-L1 (unknown origin) interaction expressed in human HEK293T cells by HTRF analysis; type: cell-based
[6] = biological target: T1, Programmed cell death protein 1/Programmed cell death 1 ligand 1; test: Inhibition of PD-1/PD-L1 (unknown origin) protein-protein interaction expressed in HEK293 cells by HTRF method; type: cell-based
[7] = Binding affinity to Hsp90 (unknown origin) expressed in Escherichia coli BL21 (DE3) cells assessed as inhibition constant by NMR STD analysis; parameters: species or system Homo sapiens
[8] = Oral bioavailability in mouse at 2 mg/kg; type: ADME, organism-based; details: in vivo
[9] = Oral bioavailability in rat at 2 mg/kg by LC-MS/MS analysis; type: ADME, organism-based; details: in vivo
[10] = Oral bioavailability in Beagle dog at 2 mg/kg; type: ADME, organism-based, Canis lupus familiaris; details: in vivo
[11] = Oral bioavailability in monkey at 5 mg/kg; type: ADME, organism-based, Macaca mulatta; details: rhesus monkey, in vivo
[12] = Binding affinity to Hsp90 (unknown origin) assessed as dissociation constant; parameters: species or system Homo sapiens

T1 sequence (Q15116 whole entry): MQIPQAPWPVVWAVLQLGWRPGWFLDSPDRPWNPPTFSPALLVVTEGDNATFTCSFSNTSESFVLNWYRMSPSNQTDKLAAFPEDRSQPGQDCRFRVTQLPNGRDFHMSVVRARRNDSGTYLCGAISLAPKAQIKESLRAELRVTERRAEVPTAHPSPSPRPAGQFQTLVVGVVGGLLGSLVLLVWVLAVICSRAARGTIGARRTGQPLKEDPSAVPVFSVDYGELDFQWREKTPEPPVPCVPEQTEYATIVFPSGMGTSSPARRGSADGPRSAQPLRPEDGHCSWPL
T1 sequence (Q9NZQ7 whole entry): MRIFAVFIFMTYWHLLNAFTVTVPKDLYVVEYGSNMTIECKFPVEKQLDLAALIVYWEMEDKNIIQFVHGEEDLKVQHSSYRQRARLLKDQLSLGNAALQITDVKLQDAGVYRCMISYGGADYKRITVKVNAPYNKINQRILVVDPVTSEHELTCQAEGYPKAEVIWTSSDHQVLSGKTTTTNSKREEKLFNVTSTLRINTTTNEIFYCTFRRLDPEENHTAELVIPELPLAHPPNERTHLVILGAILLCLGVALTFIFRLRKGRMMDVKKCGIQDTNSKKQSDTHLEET
Stimulator of interferon genes protein, sequence (Q86WV6 whole entry): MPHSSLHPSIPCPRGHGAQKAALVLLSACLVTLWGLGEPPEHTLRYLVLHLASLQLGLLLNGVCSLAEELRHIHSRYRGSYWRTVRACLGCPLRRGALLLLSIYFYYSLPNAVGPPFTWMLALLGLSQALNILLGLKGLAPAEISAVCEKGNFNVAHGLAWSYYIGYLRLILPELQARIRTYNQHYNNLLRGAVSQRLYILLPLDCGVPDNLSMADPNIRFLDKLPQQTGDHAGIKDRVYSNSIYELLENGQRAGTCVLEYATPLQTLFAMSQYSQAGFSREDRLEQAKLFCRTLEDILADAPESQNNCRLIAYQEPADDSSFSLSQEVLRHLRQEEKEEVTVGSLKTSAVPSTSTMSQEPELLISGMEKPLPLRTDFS

For `COc1cc2cc(C(=O)CCC(=O)O)sc2cc1OC`, which Kd [1] is on record?
Its Kd is 18 µM.

For `Oc1cccc2c1CCCC2`, which Kd [2] is on record?
Its Kd is 4300 µM.

For `Oc1ccc(-c2ccccc2)cc1`, which Kd [2] is on record?
Its Kd is 6000 µM.

With `CN(C)CC[C@H](CSc1ccccc1)Nc1ccc(S(=O)(=O)NC(=O)c2ccc(N3CCN(Cc4ccccc4-c4ccc(Cl)cc4)CC3)cc2)cc1[N+](=O)[O-]` [ABT 737] as the molecule, how does the Ki [3] read?
Its Ki is < 0.001 µM.

Which Kd [2] does the source give for `O=C(O)c1ccc(-c2ccc(F)cc2)cc1` here?
The Kd was 300 µM.

What does the source list for `CCCC[C@H]1C(=O)N(C)[C@@H](CCCC)C(=O)N[C@@H](CCCNC(=N)N)C(=O)N[C@H](C(=O)NCC(N)=O)CSCC(=O)N[C@@H](Cc2ccccc2)C(=O)N(C)[C@@H](C)C(=O)N[C@@H](CC(N)=O)C(=O)N2CCC[C@H]2C(=O)N[C@@H](Cc2c[nH]cn2)C(=O)N[C@@H](CC(C)C)C(=O)N(C)CC(=O)N[C@@H](Cc2c[nH]c3ccccc23)C(=O)N[C@@H](CO)C(=O)N[C@@H](Cc2c[nH]c3ccccc23)C(=O)N1C` ({CH2CO}-F[NMeA]NPHL[Sar]WSW[NMeNle][NMeNle]RCG-NH2; thioether N-14)?
IC50 [4]: 0.009 µM; IC50 [5]: 0.06 µM

Which IC50 [6] does the source give for `CCCC[C@H]1C(=O)N(C)[C@@H](CCCC)C(=O)N[C@@H](CC(C)C)C(=O)N[C@H](C(=O)NCC(N)=O)CSCC(=O)N[C@@H](Cc2ccc(O)cc2)C(=O)N(C)[C@@H](C)C(=O)N[C@@H](CC(N)=O)C(=O)N2CCC[C@H]2C(=O)N[C@@H](CN)C(=O)N[C@@H](CC(C)C)C(=O)N2C[C@H](O)C[C@H]2C(=O)N[C@@H](Cc2c[nH]c3ccccc23)C(=O)N[C@@H](CCN)C(=O)N[C@@H](Cc2cn(CC(=O)O)c3ccccc23)C(=O)N1C` ({CH2CO}-Y[NMeA]NP[Dap]L[Hyp]W[Dab][Trp(1-CH2COOH)][NMeNle][NMeNle]LCG-NH2; thioether N-14) here?
The IC50 was 0.00027 µM.

With `O=C(O)c1ccc(-c2ccc(F)cc2)cc1/C=C/c1cccc(-c2ccccc2)c1` as the molecule, how does the Ki [7] read?
Its Ki is 1.4 µM.

For `COc1cccc(Nc2ncnn3ccc(CN4CC[C@@H](N)[C@@H](O)C4)c23)c1`, which bioavailability [8] is on record?
Its bioavailability is 29.7%.

What about the bioavailability [9] of the same molecule?
Its bioavailability is 29.7%.

What about the bioavailability [10] of the same molecule?
The bioavailability was 29.7%.

What about the bioavailability [11] of the same molecule?
Its bioavailability is 8%.

Which Ki [7] does the source give for `O=C(NS(=O)(=O)c1ccc(NCCSc2ccccc2)c([N+](=O)[O-])c1)c1ccc(-c2ccc(F)cc2)cc1` here?
Its Ki is 0.036 µM.

With `Cc1cccc(C2c3[nH]c4ccccc4c3CC3C(=O)N(c4ccccc4C(=O)O)C(=O)N32)c1` (stereo not given) as the molecule, how does the Kd [12] read?
Its Kd is 177 µM.
